Source: ChEMBL document CHEMBL4376834, “Discovery of 4H-Chromen-4-one Derivatives as a New Class of Selective Rho Kinase (ROCK) Inhibitors, which Showed Potent Activity in ex Vivo Diabetic Retinopathy Models” (J Med Chem, 2019)

Assays:
[1] = target: Serine/threonine-protein kinase DCLK3 (Homo sapiens, UniProt Q9C098); assay: Inhibition of recombinant human DCAMKL3 (345 to end residues) using KKLNRTLSFAEPG as substrate after 40 mins in presence of [gamma-33ATP] by radiometric scintillation counting analysis
[2] = target: Serine/threonine-protein kinase Nek2 (Homo sapiens, UniProt P51955); assay: Inhibition of recombinant full-length human NEK2 using myelin basic protein as substrate measured after 40 mins in presence of [gamma33P]ATP by radiometric scintillation counting analysis
[3] = target: Serine/threonine-protein kinase 17B (Homo sapiens, UniProt O94768); assay: Inhibition of recombinant full length human DRAK2 using KKRPQRRYSNVF as substrate at 120 mins in presence of [gamma-33ATP] by radiometric scintillation counting analysis
[4] = Inhibition of recombinant full length human PKBalpha S478G mutant using GRPRTSSFAEGKK as substrate incubated for 40 mins in presence of [gamma33P]ATP by radiometric scintillation counting analysis
[5] = target: Macrophage-stimulating protein receptor (Homo sapiens, UniProt Q04912); assay: Inhibition of recombinant human Ron (983 to end residues) using GGMEDIYFEFMGGKKK as substrate incubated for 40 mins in presence of [gamma33P]ATP by radiometric scintillation counting analysis
[6] = target: Mitogen-activated protein kinase 14 (Homo sapiens, UniProt Q16539, T106M); assay: Inhibition of recombinant human full length SAPK2a T106M mutant using myelin basic protein as substrate incubated for 40 mins in presence of [gamma33P]ATP by radiometric scintillation counting analysis
CDK2/Cyclin A1 = CDK2/Cyclin A1 (Homo sapiens, UniProt P24941); assay: Inhibition of recombinant full length human CDK2/CyclinA using Histone H1 as substrate incubated for 40 mins in presence of [gamma-33ATP] by radiometric scintillation counting analysis; assay type: protein-complex assay
[7] = target: Serine/threonine-protein kinase 25 (Homo sapiens, UniProt O00506); assay: Inhibition of recombinant human STK25 (1 to 308 residues) using RLGRDKYKTLRQI as substrate incubated for 40 mins in presence of [gamma33P]ATP by radiometric scintillation counting analysis
[8] = target: Bone morphogenetic protein receptor type-2 (Homo sapiens, UniProt Q13873); assay: Inhibition of human recombinant BMPR2 (172 to 734 residues) using myelin basic protein as substrate incubated for 120 mins in presence of [gamma-33ATP] by radiometric scintillation counting analysis
[9] = target: Platelet-derived growth factor receptor alpha (Homo sapiens, UniProt P16234); assay: Inhibition of human PDGFRalpha (550 to end residues) using poly(Glu, Tyr) 4:1 as substrate measured after 40 mins in presence of [gamma33P]ATP by radiometric scintillation counting analysis
[10] = target: Mitogen-activated protein kinase kinase kinase kinase 1 (Homo sapiens, UniProt Q92918); assay: Inhibition of human recombinant HPK1 (1 to 346 residues) using myelin basic protein as substrate after 40 mins by [gamma-33ATP] radiometric assay
TGF-beta receptor type-2 = TGF-beta receptor type-2 (Homo sapiens, UniProt P37173); assay: Inhibition of recombinant human TGFBR2 (188 to end residues) using MBP as substrate incubated for 120 mins in presence of [gamma33P]ATP by radiometric scintillation counting analysis
[11] = target: Cyclin-dependent kinase 5/CDK5 activator 1 (Homo sapiens, UniProt Q00535); assay: Inhibition of recombinant full length human CDK5/p35 using histone H1 as substrate incubated for 40 mins in presence of [gamma-33ATP] by radiometric scintillation counting analysis; assay type: protein-complex assay
[12] = target: Tyrosine-protein kinase receptor UFO (Homo sapiens, UniProt P30530, Q764R); assay: Inhibition of human recombinant Axl Q764R mutant (473 to end residues) using KKSRGDYMTMQIG as substrate measured after 40 mins in presence of [gamma33P]ATP by radiometric scintillation counting analysis
[13] = target: Tyrosine-protein kinase Fes/Fps (Homo sapiens, UniProt P07332); assay: Inhibition of recombinant human FES (2 to end residues) using poly(Glu, Tyr) 4:1 as substrate after 40 mins in presence of [gamma-33ATP] by radiometric scintillation counting analysis
[14] = target: Tyrosine-protein kinase Fgr (Homo sapiens, UniProt P09769); assay: Inhibition of recombinant human FGR (2 to end residues) using poly(Glu, Tyr) 4:1 as substrate after 40 mins in presence of [gamma-33ATP] by radiometric scintillation counting analysis
[15] = target: Mitogen-activated protein kinase kinase kinase kinase 5 (Homo sapiens, UniProt Q9Y4K4); assay: Inhibition of recombinant full length human MAP4K5 using myelin basic protein as substrate incubated for 40 mins in presence of [gamma-33ATP by radiometric scintillation counting analysis
[16] = target: Serine/threonine-protein kinase pim-1 (Homo sapiens, UniProt P11309); assay: Inhibition of recombinant full length human Pim1 using KKRNRTLTV as substrate incubated for 40 mins in presence of [gamma33P]ATP by radiometric scintillation counting analysis
Rhodopsin kinase GRK7 = Rhodopsin kinase GRK7 (Homo sapiens, UniProt Q8WTQ7); assay: Inhibition of recombinant full length human GRK7 using casein as substrate after 40 mins in presence of [gamma-33ATP] by radiometric scintillation counting analysis
[17] = target: High affinity nerve growth factor receptor (Homo sapiens, UniProt P04629); assay: Inhibition of recombinant human TRKA (440 to end residues) using KKKSPGEYVNIEF as substrate incubated for 40 mins in presence of [gamma33P]ATP by radiometric scintillation counting analysis
[18] = target: Tyrosine-protein kinase CSK (Homo sapiens, UniProt P41240); assay: Inhibition of recombinant full length human CSK using poly(Glu, Tyr) 4:1 as substrate incubated 40 mins in presence of [gamma-33ATP] by radiometric scintillation counting analysis
[19] = target: Serine/threonine-protein kinase VRK1 (Homo sapiens, UniProt Q99986); assay: Inhibition of human VRK1 in presence of 10 uM ATP by radiometric analysis
[20] = target: Serine/threonine-protein kinase MARK2 (Homo sapiens, UniProt Q7KZI7); assay: Inhibition of recombinant full-length human PAR1Balpha using KKKVSRSGLYRSP as substrate measured after 40 mins in presence of [gamma33P]ATP by radiometric scintillation counting analysis
[21] = target: Ribosomal protein S6 kinase alpha-3 (Homo sapiens, UniProt P51812); assay: Inhibition of recombinant human Rsk2 (2 to end residues) using KKKNRTLSVA as substrate incubated for 40 mins in presence of [gamma33P]ATP by radiometric scintillation counting analysis
[22] = target: Inhibitor of nuclear factor kappa-B kinase subunit alpha (Homo sapiens, UniProt O15111); assay: Inhibition of recombinant full length human IKKalpha using peptide substrate after 40 mins by [gamma-33ATP]by radiometric scintillation counting analysis
[23] = Inhibition of recombinant human Plk4 S34T mutant (1 to 273 residues) using casein as substrate incubated for 40 mins in presence of [gamma33P]ATP by radiometric scintillation counting analysis

Measured: IC50

Chain of Serine/threonine-protein kinase MARK2 (Q7KZI7 whole entry): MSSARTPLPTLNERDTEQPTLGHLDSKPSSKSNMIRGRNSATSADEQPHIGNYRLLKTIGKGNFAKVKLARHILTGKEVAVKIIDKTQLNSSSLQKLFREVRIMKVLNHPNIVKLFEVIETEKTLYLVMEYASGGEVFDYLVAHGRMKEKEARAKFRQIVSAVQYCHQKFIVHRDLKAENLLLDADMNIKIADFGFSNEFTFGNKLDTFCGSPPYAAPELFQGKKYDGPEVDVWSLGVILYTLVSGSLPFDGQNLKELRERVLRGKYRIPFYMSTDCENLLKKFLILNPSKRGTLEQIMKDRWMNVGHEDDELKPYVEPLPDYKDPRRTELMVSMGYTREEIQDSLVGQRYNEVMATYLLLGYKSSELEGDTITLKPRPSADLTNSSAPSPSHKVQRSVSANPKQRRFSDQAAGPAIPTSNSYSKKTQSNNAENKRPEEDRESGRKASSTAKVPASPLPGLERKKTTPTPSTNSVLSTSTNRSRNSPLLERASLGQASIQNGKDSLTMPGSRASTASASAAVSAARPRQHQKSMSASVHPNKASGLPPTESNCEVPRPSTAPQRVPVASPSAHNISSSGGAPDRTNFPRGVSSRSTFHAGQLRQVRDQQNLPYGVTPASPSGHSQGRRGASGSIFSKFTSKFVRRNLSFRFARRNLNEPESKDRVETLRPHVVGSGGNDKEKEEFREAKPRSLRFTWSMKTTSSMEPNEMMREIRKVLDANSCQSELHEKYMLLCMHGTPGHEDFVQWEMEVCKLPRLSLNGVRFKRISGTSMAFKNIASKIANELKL
Chain of Rhodopsin kinase GRK7 (Q8WTQ7 whole entry): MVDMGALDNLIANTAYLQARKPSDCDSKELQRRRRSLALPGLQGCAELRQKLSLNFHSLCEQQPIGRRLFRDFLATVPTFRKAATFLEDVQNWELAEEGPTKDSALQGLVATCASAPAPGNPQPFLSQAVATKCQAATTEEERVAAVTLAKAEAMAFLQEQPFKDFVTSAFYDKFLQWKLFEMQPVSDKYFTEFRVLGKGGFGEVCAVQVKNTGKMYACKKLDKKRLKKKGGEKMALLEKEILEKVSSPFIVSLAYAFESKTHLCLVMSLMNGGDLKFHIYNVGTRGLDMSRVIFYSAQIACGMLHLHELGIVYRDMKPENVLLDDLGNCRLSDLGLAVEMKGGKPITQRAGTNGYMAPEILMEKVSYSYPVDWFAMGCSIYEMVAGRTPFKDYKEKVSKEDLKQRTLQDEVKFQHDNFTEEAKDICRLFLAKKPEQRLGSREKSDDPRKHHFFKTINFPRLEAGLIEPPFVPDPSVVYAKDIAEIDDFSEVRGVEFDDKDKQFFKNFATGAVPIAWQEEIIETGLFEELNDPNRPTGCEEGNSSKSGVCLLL
Chain of Tyrosine-protein kinase Fgr (P09769 whole entry): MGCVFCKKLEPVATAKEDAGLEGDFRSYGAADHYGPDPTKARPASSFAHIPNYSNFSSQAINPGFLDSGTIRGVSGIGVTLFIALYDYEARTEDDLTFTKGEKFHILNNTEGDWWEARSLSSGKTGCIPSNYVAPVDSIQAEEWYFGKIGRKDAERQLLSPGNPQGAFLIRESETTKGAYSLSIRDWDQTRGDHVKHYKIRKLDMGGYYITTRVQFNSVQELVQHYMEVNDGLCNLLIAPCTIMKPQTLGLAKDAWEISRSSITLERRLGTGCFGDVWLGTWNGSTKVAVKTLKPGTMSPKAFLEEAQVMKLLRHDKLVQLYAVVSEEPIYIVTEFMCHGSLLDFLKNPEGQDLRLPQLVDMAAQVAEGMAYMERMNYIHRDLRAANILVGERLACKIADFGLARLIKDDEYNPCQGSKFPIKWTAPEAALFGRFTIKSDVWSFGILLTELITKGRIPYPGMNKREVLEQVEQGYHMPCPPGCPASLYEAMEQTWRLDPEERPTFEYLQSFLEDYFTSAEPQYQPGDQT
Chain of Mitogen-activated protein kinase kinase kinase kinase 5 (Q9Y4K4 whole entry): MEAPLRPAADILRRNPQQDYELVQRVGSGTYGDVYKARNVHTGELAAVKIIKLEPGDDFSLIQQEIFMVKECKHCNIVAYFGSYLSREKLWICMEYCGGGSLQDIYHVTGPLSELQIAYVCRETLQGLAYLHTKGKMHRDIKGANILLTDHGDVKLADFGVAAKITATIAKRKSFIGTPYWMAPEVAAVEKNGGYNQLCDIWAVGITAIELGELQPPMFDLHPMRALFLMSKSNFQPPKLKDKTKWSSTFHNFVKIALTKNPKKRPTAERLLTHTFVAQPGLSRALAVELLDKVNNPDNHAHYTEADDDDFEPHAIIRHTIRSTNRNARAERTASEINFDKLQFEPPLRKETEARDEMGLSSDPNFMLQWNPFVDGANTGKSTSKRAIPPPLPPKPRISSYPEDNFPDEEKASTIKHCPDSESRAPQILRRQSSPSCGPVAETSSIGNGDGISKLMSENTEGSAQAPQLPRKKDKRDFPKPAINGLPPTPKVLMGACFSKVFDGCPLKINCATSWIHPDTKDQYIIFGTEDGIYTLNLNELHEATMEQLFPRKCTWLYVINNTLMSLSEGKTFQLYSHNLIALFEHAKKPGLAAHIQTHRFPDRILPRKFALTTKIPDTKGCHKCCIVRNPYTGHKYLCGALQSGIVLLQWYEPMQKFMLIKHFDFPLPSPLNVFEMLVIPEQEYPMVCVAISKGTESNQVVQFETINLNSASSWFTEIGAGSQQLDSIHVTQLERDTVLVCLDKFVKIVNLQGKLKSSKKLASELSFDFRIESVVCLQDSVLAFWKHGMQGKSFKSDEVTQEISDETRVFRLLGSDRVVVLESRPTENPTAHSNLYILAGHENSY
Chain of Ribosomal protein S6 kinase alpha-3 (P51812 whole entry): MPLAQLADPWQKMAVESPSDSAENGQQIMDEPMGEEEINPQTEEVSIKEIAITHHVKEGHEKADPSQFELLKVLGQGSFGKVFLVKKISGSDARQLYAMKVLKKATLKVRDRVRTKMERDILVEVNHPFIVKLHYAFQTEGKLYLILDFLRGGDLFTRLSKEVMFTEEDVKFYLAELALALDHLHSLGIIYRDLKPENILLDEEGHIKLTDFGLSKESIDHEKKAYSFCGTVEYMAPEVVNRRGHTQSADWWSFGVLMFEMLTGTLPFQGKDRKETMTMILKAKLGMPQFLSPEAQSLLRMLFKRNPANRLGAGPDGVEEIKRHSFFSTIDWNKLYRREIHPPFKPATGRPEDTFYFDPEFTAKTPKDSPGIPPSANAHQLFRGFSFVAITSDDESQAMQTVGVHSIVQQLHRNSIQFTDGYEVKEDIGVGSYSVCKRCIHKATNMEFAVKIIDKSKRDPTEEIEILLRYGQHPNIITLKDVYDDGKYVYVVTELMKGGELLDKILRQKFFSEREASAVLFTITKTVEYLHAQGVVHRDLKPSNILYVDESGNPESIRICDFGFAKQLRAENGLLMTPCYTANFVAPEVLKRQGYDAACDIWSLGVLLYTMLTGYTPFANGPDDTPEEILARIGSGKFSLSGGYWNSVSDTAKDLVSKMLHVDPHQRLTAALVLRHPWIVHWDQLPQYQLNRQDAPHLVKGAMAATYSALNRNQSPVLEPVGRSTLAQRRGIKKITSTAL
Chain of Serine/threonine-protein kinase 25 (O00506 whole entry, the tested form may be a part): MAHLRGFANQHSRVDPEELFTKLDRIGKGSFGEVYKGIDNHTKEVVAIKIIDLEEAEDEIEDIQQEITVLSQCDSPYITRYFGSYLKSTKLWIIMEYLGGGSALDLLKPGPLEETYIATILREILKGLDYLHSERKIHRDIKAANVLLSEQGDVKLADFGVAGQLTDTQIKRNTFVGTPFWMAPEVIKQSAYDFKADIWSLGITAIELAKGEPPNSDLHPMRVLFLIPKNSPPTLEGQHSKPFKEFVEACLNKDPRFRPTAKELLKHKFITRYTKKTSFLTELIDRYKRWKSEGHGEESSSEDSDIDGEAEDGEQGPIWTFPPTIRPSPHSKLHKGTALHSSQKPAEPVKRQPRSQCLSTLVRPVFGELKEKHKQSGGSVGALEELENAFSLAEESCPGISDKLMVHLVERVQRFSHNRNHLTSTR
Chain of Tyrosine-protein kinase receptor UFO (P30530 26-894 Q764R limits assumed): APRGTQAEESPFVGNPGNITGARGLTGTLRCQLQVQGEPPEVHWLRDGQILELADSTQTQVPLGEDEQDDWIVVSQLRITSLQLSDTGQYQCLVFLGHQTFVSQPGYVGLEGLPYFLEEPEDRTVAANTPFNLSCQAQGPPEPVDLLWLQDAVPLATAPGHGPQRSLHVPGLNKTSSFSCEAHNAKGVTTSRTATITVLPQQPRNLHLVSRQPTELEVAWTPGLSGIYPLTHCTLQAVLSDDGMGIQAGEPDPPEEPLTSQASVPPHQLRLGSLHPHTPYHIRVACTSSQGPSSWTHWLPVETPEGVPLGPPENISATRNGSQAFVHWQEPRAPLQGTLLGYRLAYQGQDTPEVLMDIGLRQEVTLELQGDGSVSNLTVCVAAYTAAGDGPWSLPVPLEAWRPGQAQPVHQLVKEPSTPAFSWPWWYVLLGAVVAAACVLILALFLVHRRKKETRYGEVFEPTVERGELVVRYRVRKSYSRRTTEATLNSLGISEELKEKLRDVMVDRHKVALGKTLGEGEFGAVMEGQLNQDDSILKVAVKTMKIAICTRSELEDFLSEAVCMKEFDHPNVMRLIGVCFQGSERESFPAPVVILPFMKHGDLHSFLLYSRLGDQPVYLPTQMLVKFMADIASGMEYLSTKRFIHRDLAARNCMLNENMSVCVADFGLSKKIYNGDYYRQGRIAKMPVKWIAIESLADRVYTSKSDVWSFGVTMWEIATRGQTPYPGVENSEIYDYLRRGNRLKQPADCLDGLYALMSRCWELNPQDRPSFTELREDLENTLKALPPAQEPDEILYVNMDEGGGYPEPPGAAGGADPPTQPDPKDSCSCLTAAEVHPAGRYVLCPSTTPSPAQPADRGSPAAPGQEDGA

CN(C)c1ccc(C(=O)Nc2cccc(NC(=O)COc3ccc4c(=O)ccoc4c3)c2)cc1
> 10 µM: all assays above
